According to PMC10215302 (Antibiotics, 2023):
≈ marks a conversion by molar mass, not a printed value. Like-named read-outs stand apart in the source and are kept apart here.

Assays:
[1] = tested on: S. aureus SA0077; assay: microbe, parasite or virus in culture; details: Staphylococcus aureus
[2] = tested on: S. aureus SA0085; assay: microbe, parasite or virus in culture; details: Staphylococcus aureus
[3] = tested on: S. aureus SA0422; assay: microbe, parasite or virus in culture; details: Staphylococcus aureus
[4] = tested on: S. aureus SA0736; assay: microbe, parasite or virus in culture; details: Staphylococcus aureus
[5] = tested on: S. aureus ATCC 29213; assay: microbe, parasite or virus in culture; details: Staphylococcus aureus
[6] = tested on: S. aureus SA0077
[7] = tested on: S. aureus SA0085
[8] = tested on: S. aureus SA0422
[9] = tested on: S. aureus SA0736
[10] = tested on: S. aureus ATCC 29213
[11] = tested on: S. aureus RN4220
[12] = SA0077, read-out: MIC values, Table S1: SA0077 VAN (derivative after 40 passages on vancomycin)
[13] = SA0736, read-out: MIC values, Table S1: SA0736 DAP-W (40 passages on daptomycin, white colonies)
[14] = SA0736, read-out: MIC values, Table S1: SA0736 VAN (derivative after 40 passages on vancomycin)
[15] = ATCC29213, read-out: MIC values
[16] = SA0077, read-out: MIC values, Table S1: SA0077 Abf (passages on antibiotic-free media)
[17] = SA0077, read-out: MIC values, Table S1: SA0077 DAP (derivative after 40 passages on daptomycin)
[18] = SA0085, read-out: MIC values, Table S1: SA0085 VAN (derivative after 40 passages on vancomycin)
[19] = SA0422, read-out: MIC values, Table S1: SA0422 DAP (derivative after 40 passages on daptomycin)
[20] = ATCC29213, read-out: MIC values, Table S1: ATCC 29213 DAP (derivative after 40 passages on daptomycin)
[21] = ATCC29213, read-out: MIC values, Table S1: ATCC 29213 VAN (derivative after 40 passages on vancomycin)

With `COc1c(N2C[C@@H]3CCCN[C@@H]3C2)c(F)cc2c(=O)c(C(=O)O)cn(C3CC3)c12` [Moxifloxacin] the MIC ([1]; SA0077, read-out: MIC values) was 2 µg/mL (≈ 4.98 µM), the MIC [1, 12] was 4 µg/mL (≈ 9.96 µM) and the MIC ([2]; SA0085, read-out: MIC values) was 8 µg/mL (≈ 19.9 µM). The MIC ([3]; SA0422, read-out: MIC values) was 2 µg/mL (≈ 4.98 µM), the MIC ([4]; SA0736, read-out: MIC values) was 2 µg/mL (≈ 4.98 µM) and the MIC [4, 13] was 4 µg/mL (≈ 9.96 µM). It also gave an MIC [4, 14] of 4 µg/mL (≈ 9.96 µM) and an MIC [5, 15] of 0.125 µg/mL (≈ 0.311 µM).

In the case of `C/C(=C\C(=O)OCCCCCCCCC(=O)O)C[C@@H]1OC[C@H](C[C@@H]2O[C@H]2[C@@H](C)[C@H](C)O)[C@@H](O)[C@H]1O` [Mupirocin], the MIC ([1]; SA0077, read-out: MIC values) is reported as 0.5 µg/mL (≈ 0.999 µM), the MIC [1, 16] is reported as 1 µg/mL (≈ 2 µM) and the MIC [1, 12] is reported as 1 µg/mL (≈ 2 µM). For the same molecule, the MIC ([2]; SA0085, read-out: MIC values) was 1 µg/mL (≈ 2 µM), the MIC ([3]; SA0422, read-out: MIC values) was 1 µg/mL (≈ 2 µM) and the MIC ([4]; SA0736, read-out: MIC values) was 1 µg/mL (≈ 2 µM). The MIC [4, 13] was 0.5 µg/mL (≈ 0.999 µM) and the MIC [5, 15] was 1 µg/mL (≈ 2 µM).

Molecule `CO[C@H]1/C=C/O[C@@]2(C)Oc3c(C)c(O)c4c(O)c(c(/C=N/N5CCN(C)CC5)c(O)c4c3C2=O)NC(=O)/C(C)=C\C=C\[C@H](C)[C@H](O)[C@@H](C)[C@@H](O)[C@@H](C)[C@H](OC(C)=O)[C@@H]1C` [Rifampicin] has an MIC ([1]; SA0077, read-out: MIC values) of 0.004 µg/mL (≈ 0.00486 µM), an MIC ([2]; SA0085, read-out: MIC values) greater than 4 µg/mL and an MIC ([3]; SA0422, read-out: MIC values) of 0.004 µg/mL (≈ 0.00486 µM). It also gave an MIC ([4]; SA0736, read-out: MIC values) of 0.004 µg/mL (≈ 0.00486 µM), an MIC [4, 14] of 0.016 µg/mL (≈ 0.0194 µM) and an MIC [5, 15] of 0.004 µg/mL (≈ 0.00486 µM).

`Cn1nnc(-c2ccc(-c3ccc(N4C[C@H](CO)OC4=O)cc3F)cn2)n1` [Tedizolid] was tested, and the MIC ([1]; SA0077, read-out: MIC values) was 0.25 µg/mL (≈ 0.675 µM), the MIC [1, 16] was 0.125 µg/mL (≈ 0.338 µM) and the MIC [1, 17] was 0.125 µg/mL (≈ 0.338 µM). The MIC [1, 12] was 0.125 µg/mL (≈ 0.338 µM), the MIC ([2]; SA0085, read-out: MIC values) was 0.5 µg/mL (≈ 1.35 µM) and the MIC [2, 18] was 0.06 µg/mL (≈ 0.162 µM). It also gave an MIC ([3]; SA0422, read-out: MIC values) of 0.25 µg/mL (≈ 0.675 µM), an MIC [3, 19] of 0.125 µg/mL (≈ 0.338 µM) and an MIC ([4]; SA0736, read-out: MIC values) of 0.125 µg/mL (≈ 0.338 µM). The MIC [5, 15] was 0.25 µg/mL (≈ 0.675 µM).

With `CN(C)[C@@H]1C(O)=C(C(N)=O)C(=O)[C@@]2(O)C(O)=C3C(=O)c4c(O)cccc4[C@@](C)(O)[C@H]3C[C@@H]12` [Tetracycline] the MIC ([1]; SA0077, read-out: MIC values) was 0.06 µg/mL (≈ 0.135 µM), the MIC ([2]; SA0085, read-out: MIC values) was 32 µg/mL (≈ 72 µM) and the MIC ([2]; SA0085, read-out: MIC values, Table S1: SA0085 DAP (derivative after 40 passages on daptomycin)) was 16 µg/mL (≈ 36 µM). It also gave an MIC [2, 18] of 0.125 µg/mL (≈ 0.281 µM), an MIC ([3]; SA0422, read-out: MIC values) of 0.06 µg/mL (≈ 0.135 µM) and an MIC ([3]; SA0422, read-out: MIC values, Table S1: SA0422 VAN (derivative after 40 passages on vancomycin)) of 0.125 µg/mL (≈ 0.281 µM). For the same molecule, the MIC ([4]; SA0736, read-out: MIC values) was 16 µg/mL (≈ 36 µM), the MIC [5, 15] was 0.125 µg/mL (≈ 0.281 µM) and the MIC [5, 20] was 0.06 µg/mL (≈ 0.135 µM). For the same molecule, the MIC [5, 21] was 0.5 µg/mL (≈ 1.13 µM).

In the case of `CN(C)c1cc(NC(=O)CNC(C)(C)C)c(O)c2c1C[C@H]1C[C@H]3[C@H](N(C)C)C(O)=C(C(N)=O)C(=O)[C@@]3(O)C(O)=C1C2=O` [Tigecycline], the MIC ([1]; SA0077, read-out: MIC values) is reported as 0.25 µg/mL (≈ 0.427 µM), the MIC [1, 16] is reported as 0.06 µg/mL (≈ 0.102 µM) and the MIC [1, 17] is reported as 0.06 µg/mL (≈ 0.102 µM). For the same molecule, the MIC [1, 12] was 0.06 µg/mL (≈ 0.102 µM), the MIC ([2]; SA0085, read-out: MIC values) was 0.125 µg/mL (≈ 0.213 µM) and the MIC ([3]; SA0422, read-out: MIC values) was 0.125 µg/mL (≈ 0.213 µM). The MIC [3, 19] was 0.06 µg/mL (≈ 0.102 µM), the MIC ([4]; SA0736, read-out: MIC values) was 0.06 µg/mL (≈ 0.102 µM) and the MIC [4, 14] was 0.125 µg/mL (≈ 0.213 µM). It also gave an MIC [5, 15] of 0.03 µg/mL (≈ 0.0512 µM), an MIC [5, 20] of 0.016 µg/mL (≈ 0.0273 µM) and an MIC [5, 21] of 0.06 µg/mL (≈ 0.102 µM).

For oritavancin, the MIC ([6]; SA0077, selecting agent DAP, passage 5) was 2 µg/mL, the MIC ([6]; SA0077, selecting agent DAP, passage 20) was 4 µg/mL and the MIC ([6]; SA0077, selecting agent DAP, passage 40) was 4 µg/mL. It also gave an MIC ([6]; SA0077, selecting agent VAN, passage 0) of less than 0.03 µg/mL, an MIC ([6]; SA0077, selecting agent VAN, passage 5) of 0.125 µg/mL and an MIC ([6]; SA0077, selecting agent VAN, passage 20) of 2 µg/mL. The MIC ([6]; SA0077, selecting agent VAN, passage 40) was 2 µg/mL, the MIC values ([6]; Table S1: SA0077 Abf (passages on antibiotic-free media)) was 0.06 µg/mL and the MIC ([7]; SA0085, selecting agent DAP, passage 5) was less than 0.03 µg/mL. For the same molecule, the MIC ([7]; SA0085, selecting agent DAP, passage 20) was 0.06 µg/mL, the MIC ([7]; SA0085, selecting agent DAP, passage 40) was 1 µg/mL and the MIC ([7]; SA0085, selecting agent VAN, passage 0) was less than 0.03 µg/mL. It also gave an MIC ([7]; SA0085, selecting agent VAN, passage 5) of 0.06 µg/mL, an MIC ([7]; SA0085, selecting agent VAN, passage 20) of 2 µg/mL and an MIC ([7]; SA0085, selecting agent VAN, passage 40) of 1 µg/mL. It also gave an MIC values ([7]; Table S1: SA0085 Abf (passages on antibiotic-free media)) of less than 0.03 µg/mL, an MIC ([8]; SA0422, selecting agent DAP, passage 5) of 0.125 µg/mL and an MIC ([8]; SA0422, selecting agent DAP, passage 20) of 0.5 µg/mL. The MIC ([8]; SA0422, selecting agent DAP, passage 40) was 0.5 µg/mL, the MIC ([8]; SA0422, selecting agent VAN, passage 0) was less than 0.03 µg/mL and the MIC ([8]; SA0422, selecting agent VAN, passage 5) was 0.06 µg/mL. For the same molecule, the MIC ([8]; SA0422, selecting agent VAN, passage 20) was 0.25 µg/mL, the MIC ([8]; SA0422, selecting agent VAN, passage 40) was 0.5 µg/mL and the MIC ([9]; SA0736, selecting agent DAP, passage 5) was less than 0.03 µg/mL. It also gave an MIC ([9]; SA0736, selecting agent DAP, passage 20) of 2 µg/mL, an MIC ([9]; SA0736, selecting agent DAP, passage 40Y (yellow colonies)) of 4 µg/mL and an MIC ([9]; SA0736, selecting agent VAN, passage 0) of less than 0.03 µg/mL. It also gave an MIC ([9]; SA0736, selecting agent VAN, passage 5) of 0.25 µg/mL, an MIC ([9]; SA0736, selecting agent VAN, passage 20) of 2 µg/mL and an MIC ([9]; SA0736, selecting agent VAN, passage 40) of 2 µg/mL. For the same molecule, the MIC values ([9]; Table S1: SA0736 DAP-W (40 passages on daptomycin, white colonies)) was 4 µg/mL, the MIC values ([9]; Table S1: SA0736 DAP-Y (40 passages on daptomycin, yellow colonies)) was 4 µg/mL and the MIC ([10]; ATCC 29213, selecting agent DAP, passage 5) was 0.06 µg/mL. The MIC ([10]; ATCC 29213, selecting agent DAP, passage 20) was 0.125 µg/mL, the MIC ([10]; ATCC 29213, selecting agent DAP, passage 40) was 2 µg/mL and the MIC ([10]; ATCC 29213, selecting agent VAN, passage 0) was 0.06 µg/mL. It also gave an MIC ([10]; ATCC 29213, selecting agent VAN, passage 5) of 0.06 µg/mL, an MIC ([10]; ATCC 29213, selecting agent VAN, passage 20) of 0.06 µg/mL and an MIC ([10]; ATCC 29213, selecting agent VAN, passage 40) of 4 µg/mL. For the same molecule, the MIC values ([11]; Table S1: RN4220 WT) was 0.016 µg/mL and the MIC values ([11]; Table S1: RN4220 ∆ (strain with deletion in SACOL1927)) was 0.016 µg/mL.
